Results from US6673938B1, “Substituted pyridine herbicides” (Syngenta Participations AG, priority 1998, dated 2004).

Experiments:
[1] = tested on: Monocotyledonous and dicotyledonous test plants; assay: Post-emergence herbicidal action; format: in vivo; conditions: 2000 g/ha, sprayed in 4- to 6-leaf stage, evaluated after approximately 18 days, nine-step scale
Outline: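 Greenhouse plants sprayed at the 4- to 6-leaf stage with test substance as wettable-powder suspension or emulsion-concentrate emulsion, 2 kg or 250 g a.i./ha in 500 l water/ha. Scored after about 18 days on a nine-step scale (1=complete damage, 9=no effect).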

[2] = tested on: Monocotyledonous and dicotyledonous test plants; assay: Herbicidal action before emergence of the plants (pre-emergence action); format: in vivo; conditions: 2000 g/ha, evaluated after 3 weeks, nine-step scale
Outline: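 Sprayed onto soil immediately after sowing as WP suspension or EC emulsion at 2 kg or 250 g a.i./ha (500 l water/ha). Greenhouse growth for 3 weeks, then scored on a nine-step scale (1 = complete damage, 9 = no effect).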

| Structure (SMILES) | melting point | Post-emergence action, Ipomoea [1] | Post-emergence action, Lolium [1] | Post-emergence action, Setaria [1] | Post-emergence action, Sinapis [1] | Post-emergence action, Solanum [1] | Post-emergence action, Stellaria [1] | pre-emergence action, Cyperus [2] | pre-emergence action, Ipomoea [2] | pre-emergence action, Setaria [2] | pre-emergence action, Sinapis [2] | pre-emergence action, Solanum [2] | pre-emergence action, Stellaria [2] |
| --- | --- | --- | --- | --- | --- | --- | --- | --- | --- | --- | --- | --- | --- |
| Cc1nc(C(F)(F)F)ccc1C(=O)C1=C(Cl)C(C)(C)C(=O)C(C)(C)C1=O [Compound A2-B1105, 5-Chloro-2,2,6,6-tetramethyl-4-(2-methyl-6-trifluoromethylpyridine-3-carbonyl)cyclohex-4-ene-1,3-dione] | 119 °C | – | – | – | – | – | – | – | – | – | – | – | – |
| Cc1nc(C(F)(F)F)ccc1C(=O)C1=C(O)C(C)(C)C(=O)C(C)(C)C1=O [Compound A2-B354, 5-hydroxy-2,2,6,6-tetramethyl-4-(2-methyl-6-trifluoromethylpyridine-3-carbonyl)cyclohex-4-ene-1,3-dione] | 139 to 140 °C | 2 | 2 | 2 | 2 | 2 | 2 | 1 | 1 | 1 | 1 | 1 | 2 |
| Cc1nc(C(F)(F)F)ccc1C(=O)C1=C(Sc2ccccc2)CCCC1=O [Compound A2-B1102, 2-(2-methyl-6-trifluoromethylpyridine-3-carbonyl)-3-phenylsulfanylcyclohex-2-enone] | 124 to 125 °C | – | – | – | – | – | – | – | – | – | – | – | – |
| CC1(C)C(=O)C(C(=O)c2ccc(C(F)(F)F)nc2CBr)=C(Cl)C(C)(C)C1=O [Compound A1029-B1105, 4-(2-Bromomethyl-6-trifluoromethylpyridine-3-carbonyl)-5-chloro-2,2,6,6-tetramethylcyclohex-4-ene-1,3-dione] | 94.5 to 95 °C | – | – | – | – | – | – | – | – | – | – | – | – |
| COC(=O)C1(C)CCC(=O)C(C(=O)c2ccc(C(F)(F)Cl)nc2C)=C1O (centres unmarked) [Compound A94-B34, methyl 3-[6-(chlorodifluoromethyl)-2-methylpyridine-3-carbonyl]-2-hydroxy-1-methyl-4-oxocyclohex-2-enecarboxylate] | 108 to 110 °C | – | – | – | – | – | – | – | – | – | – | – | – |
| Cc1nc(C(F)(F)F)ccc1C(=O)C1=C(O)CCCC1=O [Compound A2-B1, 3-hydroxy-2-(2-methyl-6-trifluoromethylpyridine-3-carbonyl)cyclohex-2-enone] | 90 to 92 °C | 1 | 2 | 1 | 1 | 1 | 2 | 2 | 2 | 1 | 2 | 2 | 1 |
| Cc1nc(C(F)(F)F)ccc1C(=O)C1=C(S(=O)(=O)c2ccccc2)CCCC1=O [Compound A2-B1104, 3-Benzenesulfonyl-2-(2-methyl-6-trifluoromethylpyridine-3-carbonyl)cyclohex-2-enone] | 165 to 167 °C | – | – | – | – | – | – | – | – | – | – | – | – |
| CCc1nc(C(F)(F)F)ccc1C(=O)C1=C(O)C(C)(C)CCC1=O [Compound A3-B24] | – | 2 | 2 | 2 | 1 | 2 | 2 | 1 | 3 | 2 | 2 | 1 | 2 |
| Cc1nc(C(F)(F)F)ccc1C(=O)C1=C(O)C(C)(C)CCC1=O [Compound A2-B24, 3-Hydroxy-4,4-dimethyl-2-(2-methyl-6-trifluoromethylpyridine-3-carbonyl)cyclohex-2-enone] | 75 to 76 °C | 1 | 2 | 2 | 1 | 2 | 2 | 1 | 1 | 1 | 2 | 1 | 1 |
